Experimental data published in patent US12534700B2, “Beneficial microbes for delivery of effector peptides or proteins and use thereof” (priority 2016, dated 2026).

B1: Fresno-P5-21: Red fluorescent protein Fresno fused at C-terminus to harpin peptide P5-21 and 6×His tag, SEQ ID NO: 13 (protein)
chain: MNSLIKENMHMKLYMEGTVNNHHFKCTSEGEGKPYEGTQTMRIKVVEGGPLPFAFDILATSFMYGSRTFIKYPKGIPDFFKQSFPEGFTWERVTRYEDGGVVTATQDTSLEDGCLVYHVQVRGVNFPSNGPVMQKKTLGWEPNTEMLYPADGGLEGRSDMALKLVGGGHLSCSFVTTYRSKKTVGNIKMPGIHAVDHRLVRIKEADKETYVEQHEVAVAKFAGLGGGMDELYKSEEQLELLLAFIAAALQQEESRHHHHHH

Experiments:
[1] = system: tobacco leaves; conditions: peptides described in prior applications; cited from earlier work
[2] = Confirmation of soluble protein in bacterial cell lysates; type: physicochemical; conditions: B. subtilis lysate, Bugbuster plus lysozyme, 20,000 g for 10 minutes at 4° C.
Procedure: Fluorescent colonies from Example 3 were inoculated into 5 ml cultures of LB medium supplemented with 10 ug/ml Kanamycin and grown for 2 days with 170 rpm shaking at 37° C. Cells were harvested by centrifugation (5000 g for 15 minutes at 4° C.). The culture was decanted away from the cell pellet. The cell pellets were resuspended in 1 ml each of Bugbuster Protein Extraction Reagent (EMD Millipore, Billerica, MA, USA) supplemented with 200 ug/ml of lysozyme. Lysis was allowed to proceed for 20 minutes at room temperature (20° C.). The lysates were centrifuged at 20,000 g for 10 minutes at 4° C. to separate soluble from insoluble proteins.

[3] = system: tobacco leaves; assay: Hypersensitive response test of purified Fresno-p5-21 infused into tobacco leaves; type: in vivo; conditions: after 2 days
Procedure: The production and purification procedure of Examples 4 and 5 were scaled up to 1 L to produce a quantity of protein appropriate for hypersensitive response elicitation in tobacco leaves.
Briefly, 1 L of LB culture media was supplemented with 10 ug/ml Kanamycin and cells were grown as in Example 3 for 2 days in a baffled flask. Cells were harvested at 6000 g for 20 minutes at 4° C. Culture supernatant was removed from the cells and the cells were resuspended in 20 ml of Bugbuster Protein Extraction Reagent supplemented with 50 ug/ml lysozyme. The sample was gently rocked at room temperature for 30 minutes and then frozen on liquid nitrogen and stored at −80° C.
The sample was thawed on ice and a 1/50 volume of 500 mM imidazole was added for a final concentration of 10 mM imidazole. 8 ml of the sample was mixed with 2 ml of settled Ni-NTA agarose resin (5-Prime) end-over-end for 2 hours at 4° C. The column was then settled for 20 minutes and allowed to flow by gravity. The flowthrough was collected. The resin was washed with 5 column volumes of 50 mM sodium phosphate, 15 mM imidazole, 200 mM NaCl. Finally, the protein was eluted with 250 mM imidazole, pH 7.5. […] The protein concentration was quantified by UV/Vis spectroscopy using a Nanodrop 2000 (Thermo Fisher Scientific, Waltham, MA, USA). […]

Molecule | induction of a hypersensitive response [1] | solubility of recombinant protein (colour of lysate supernatant) [2] | hypersensitive response (lesions typical of HR) ([3]; 1× concentration (about 100 ug/ml protein)) | hypersensitive response (lesions typical of HR) ([3]; 2× dilution)
SAGSEQQLDQLLLMFIMMMLQQ [P5a] | capable of inducing a hypersensitive response | – | – | –
SEEQLELLLAFIAAALQQEE [P5-21] | capable of inducing a hypersensitive response | – | – | –
SAGSEQQLDLLLMFIMMMLQQ [P5] | capable of inducing a hypersensitive response | – | – | –
SEEEEQLDOLLLAFIAAALQQ (SEEEEQLDQLLLAFIAAALQQ; P5-25) | does not | – | – | –
B1 | – | soluble | caused lesions | caused lesions
